Data: patent publication US20040141944A1, “Inhibition of xenoreactive antibodies” (priority 1998, published 2004)

Assays:
[1] = system: peripheral blood-derived ASCs; assay: short-term in vitro effects of TPC on peripheral blood-derived ASCs (ELISPOT); format: cell-based; conditions: 50 ug/mL TPC (410S), 2 hours at 37° C., heparinized peripheral blood from a normal donor
Protocol: (§1) To each well of the first 10 columns of a sterile hydrazine modified polystyrene 96-well plate (Corning Costar, Cambridge, Mass.), 100 μL per well of a solution containing 3.2 mg/mL αGal(1,3)Gal β 1-4 GlcNAc, 3.1 mg/mL EDC and 2.4 mg/mL NHS were added in a darkened cold room and the reaction proceeded for four hours. After careful washing with sterile H2O, the plates were completely covered with plastic strips and stored at 4° C. until use. Plates were blocked with sterile 400 ul/well of PBS/1% HSA for 2 hours at 37° C. Peripheral blood mononuclear cells were isolated by Ficoll-Hypaque (specific gravity, 1.077 g/mL; Pharmacia Fine Chemicals, Piscatawy, N.J.) density gradients at 400 g for 30 min. at 22° C. […] Plates were incubated overnight in the dark at room temperature and single Ab-secreting, spot forming cells (ASC) were visualized, analyzed and counted under low magnification using an inverted phase microscope. Data represents total isotype specific anti-gal Ab-secreting cells/10^6 PBMNCs, calculated from serially diluted cell samples.
short-term in vitro effects of TPC on peripheral blood-derived ASCs were assessed by incubating (2 hours at 37° C., with rotation at 6 rpm) heparinized peripheral blood from a normal donor in the presence or absence of 50 ug/mL TPC (410S). […]

[2] = system: Purified CD19+B cells; assay: effect of TPC on T cell-independent anti-Gal B cell activation (ELISPOT); format: cell-based; conditions: TPC (410S) 1 mg/mL pretreatment 30 min or 50 ug/mL daily; 5 day culture with SAC, IL-2, IL-4, anti-CD40
Protocol: as §1
Purified CD19+B cells were obtained by positive selection with the use of anti-CD19+ immunomagnetic beads (Pan-B (CD19); Dynal, Lake Success, N.Y.). […] Following the 5 day culture period, cells were washed extensively, counted, viability determined and the number of ASC determined using the anti-Gal ELISPOT assay. […]

[3] = system: xenoreactive antibodies; assay: TPC treatment with discordant xenotransplant (pig heart) in cynomolgous monkeys; format: in vivo
Protocol: The TPC molecule 410S was prepared as described above in Example 5. Three monkeys received 250 mg TPC (# 19-97, 18-97, 21-97), and two monkeys received 250 mg control vehicle (#28-97, 23-97) every 3 days for 2 weeks (total 6 doses/animal) via IV infusion. 250 mg/5 mL per vial was supplied as sterile solution to be injected into 50 ML sterile physiological saline in an IV bag and administered IV at a rate of approximately 2-3 mLs/min. Prior to administration and 15-60 minutes after administration was complete, 1-3 mLs of blood was drawn for serum from each monkey at a site distant from the site of administration. On the day of the 6th dose, each monkey underwent a heterotopic heart transplant following drug infusion. A heart from a transgenic pig which expresses human CD59 and human CD55 was placed in the abdominal position as described (Byrne, et al., 1997, Transplantation 63:149-155) and remained in place up to 6 hours before being explanted.
Following the transplant and explant, the monkeys continued infusion of either TPC or control vehicle, as above, once per day for 9 days. Blood was drawn for serum analysis before and after each administration. The monkeys were monitored for at least 15 days after cessation of TPC administration, and blood was drawn 2 times per week for serum analysis. One monkey died 2 days post-transplant.

Question: “(αGal(1,3)Gal β 1-4 GlcNAc)4-PEG [Example 410S]” was tested. Which “effect on the number of detectable ASCs” value [1] did it give?
Answer: The value was “no effect”.

Question: And the “effect on total cell yield and viability” value [1]?
Answer: Its value is “no effect”.

Question: What about the “effect on the number of detectable ASCs” value [2] of the same substance?
Answer: Its value is “no effect”.

Question: And the “effect on total cell yield and viability” value [2]?
Answer: Its value is “no effect”.

Question: And the xenoreactive antibody levels ([3]; 250 mg TPC, during the 9 days of TPC administration following explant of the pig heart)?
Answer: The xenoreactive antibody levels was “maintained low levels”.

Question: And the XNA levels ([3]; following cessation of TPC)?
Answer: The XNA levels was “rose, but not as dramatically as in the non-TPC-treated control”.
